What was measured:
[1] = tested on: mouse model with femoral distal bone defect; assay: bone defect repair in mouse model with femoral distal bone defect; assay type: in vivo
primary osteoblasts [2] = assay: cell counting kit-8 (CCK-8) assay, viability of primary osteoblasts; assay type: cell-based, mouse
OVX model mice = assay: ovariectomy (OVX) model mouse, estrogen-deficient osteoporosis; assay type: in vivo; conditions: for number of TRAP-positive cells: distal femur sections
primary osteoblasts [3] = assay: RT-qPCR of osteogenic genes Sp7, Bglap, Alpl in primary osteoblasts; conditions: RT-PCR
Experimental: After euthanizing 3-5-day-old mouse with CO2, the euthanized mouse is soaked in 70% alcohol for disinfection for 15 minutes. The disinfected mouse is then carefully skinned from a top of the skull, and the skull tissue blocks are placed in an a-modified eagle medium (α-MEM) digestion culture medium containing 1 mg/mL collagenase-A and 1% penicillin/streptomycin. The skull tissue blocks are digested at 37° C. for 6 hours, with the cell tissue blocks being pipetted and blown every hour. After the digestion of the tissue blocks is complete to obtain a mixture, the mixture is filtered through a 70-μm cell strainer, centrifuged at 1000 revolutions per minute (rpm) for 5 minutes, and then resuspended in α-MEM culture medium to obtain mixed cells. The mixed cells are inoculated in a well plate to obtain osteoblasts, and the osteoblasts are cultured in complete α-MEM medium containing 10% fetal bovine serum. When a cell adhesion convergence degree of the osteoblasts reaches 60-70%, the osteoblasts are induced for osteogenic differentiation with an osteogenic culture medium containing ascorbic acid (50 g/mL) and β-glycerophosphate (10 millimoles per liter abbreviated as mM) for 7 days before the cells are collected for the next step of the experiment.
1.1.7 Extraction of Messenger Ribonucleic Acid (mRNA) of Cells and Detection of Reverse Transcription Quantitative Polymerase Chain Reaction (RT-qPCR)
TRIzol reagent (i.e., TRI reagent®) is used to harvest and extract total RNA from the osteoblast cultures. The mRNA is then reverse transcribed into complementary deoxyribonucleic acid (DNA) using the TaqMan reverse transcription kit (Biomake). After that, a real-time quantitative polymerase chain reaction (RT-qPCR) is conducted with the SYBR Premix Ex Taq™ II.

osteoblasts = assay: alkaline phosphatase staining, osteogenic differentiation of osteoblasts; assay type: cell-based, mouse; conditions: in vitro; 2.5 μM, 5.0 μM, 10 μM
[4] = tested on: Ppm1a knockout (Ppm1a−/−) mice with bone defect; assay type: in vivo, mouse
[5] = tested on: livers, hearts, kidneys, and spleens of OVX model mice; assay: biosafety evaluation, HE staining of organs in OVX model mice; assay type: in vivo, mouse; conditions: low-dose and high-dose, 8 weeks of intervention
Text: The livers, hearts, kidneys, and spleens of the mice in the OVX model post-intervention with miltefosine for 8 weeks are collected, and the tissue morphology of these organs is observed through hematoxylin and eosin (HE) staining.

[6] = CT analysis, one week after operation
[7] = 8 weeks post-OVX, vs control group

CCCCCCCCCCCCCCCCOP([O])(=O)OCC[N+](C)(C)C (stereo not drawn) [miltefosine, hexadecylphosphocholine] was tested, and the “BMD in the bone defect repair area” value [1, 6] was “increase”, the “BV/TV in the bone defect repair area” value [1, 6] was “increase” and the “trabecular number (Tb.N) in the bone defect repair area” value [1, 6] was “increase”. For the same compound, the “expression level of osteocalcin (OCN) in the bone defect repair area” value ([1]; immunohistochemistry, vs control group) was “significantly increased”, the “bone repair (μ-CT scans of femur)” value ([1]; one week after model creation) was “effectively accelerate bone repair” and the “area of new bone in the bone defect area (SO/FG staining)” value ([1]; vs control (vehicle) group, one week after operation) was “significantly larger”. The “effect on the viability of the primary osteoblasts” value (primary osteoblasts [2]; 0.5 μM to 20 μM in vitro) was “no significant effect”, the “cell death of the primary osteoblasts” value (primary osteoblasts [2]; 50 μM) was “approximately 50%” and the “BMD at the distal femur” value (OVX model mice; 8 weeks post-OVX) was “significantly increase”. The Conn.Dn (OVX model mice; 8 weeks post-OVX) was “improve”, the “SMI of the bone tissue” value (OVX model mice; 8 weeks post-OVX) was “improve” and the “bone loss at the distal femur (histomorphometric analysis, ABH/OG, trabecular bone area fraction)” value (OVX model mice; 8 weeks post-OVX) was “reduce bone loss”. For the same compound, the “number of osteoblasts on the trabecular bone surface” value (OVX model mice; 8 weeks post-OVX) was “increase”, the “BV/TV of trabecular bone” value (OVX model mice; [7]) was “significantly increased” and the Tb.N (OVX model mice; [7]) was “significantly increased”. The Tb.Sp (OVX model mice; [7]) was “markedly reduced”, the Tb.Th (OVX model mice; [7]) was “significantly increased” and the “expression level of mature osteoclast marker cathepsin K (CTSK)” value (OVX model mice; control group vs treated groups) was “no significant difference”. For the same compound, the “bone formation by ALP immunohistochemical staining” value (OVX model mice; distal femur, 8 weeks post-OVX) was “significantly promote the bone formation”, the “bone formation by immunofluorescence staining for OCN” value (OVX model mice; distal femur, 8 weeks post-OVX) was “significantly promote the bone formation” and the “formation of adipocytes (Fabp4 immunohistochemical staining)” value (OVX model mice; distal femur, 8 weeks post-OVX) was “no obvious effect”. For the same compound, the “number of TRAP-positive cells” value (OVX model mice; high-dose) was “slightly reduces”, the “bone loss at the distal metaphysis of the femur (micro-CT)” value (OVX model mice; low-dose and high-dose groups, 8 weeks post-OVX) was “significantly less” and the “number of TRAP-positive cells” value (OVX model mice; low-dose) was “does not affect”. For the same compound, the “expression of osteogenic gene Alpl (mRNA)” value (primary osteoblasts [3]) was “upregulate”, the “expression of osteogenic gene Bglap (mRNA)” value (primary osteoblasts [3]) was “upregulate” and the “expression of osteogenic gene Sp7 (mRNA)” value (primary osteoblasts [3]) was “upregulate”. The “osteogenic differentiation capacity of osteoblasts (alkaline phosphatase staining)” value (osteoblasts) was “significantly enhance”, the “osteogenic effects in bone defect repair (Micro-CT)” value [4] was “could not exert the above osteogenic effects” and the “tissue morphology of livers, hearts, kidneys, and spleens (HE staining)” value [5] was “no obvious lesions or pathological changes”.
